Measured values from US20180243190A1, “ACTIVATORS OF NRF2-DEPENDENT PHOTOPROTECTION AND RELATED USES THEREOF” (THE ARIZONA BOARD OF REGENTS ON BEHALF OF THE UNIVERSITY OF …, priority 2015, published 2018).

Tests used:
[1] = test system: primary human epidermal keratinocytes (HEKs); assay: Oxidative Stress RT2 Profiler PCR Expression Array analysis; format: cell-based; details: bixin 20 μM, 24 h
Protocol: Total cellular RNA was prepared according to a standard procedure using the RNeasy kit (Qiagen, Valencia, Calif., USA). Reverse transcription was performed using the RT^2 First Strand kit (SuperArray, Frederick, Md., USA) and 1 μg total RNA. The Human Oxidative Stress RT^2Profiler™ PCR Expression Array (SuperArray) profiling the expression of 84 stress-related genes was employed as described before. Gene-specific product was normalized to ACTB and quantified using the comparative (ΔΔCt) Ct method following the ABI Prism 7000 sequence detection system user guide. Expression values were averaged across three independent array experiments followed by statistical analysis.

[2] = design: species or system SKH-1 mice; details: mouse, in vivo, 200 mg/kg
From the text: To explore the potential systemic photoprotective activity of bixin in a murine skin sunburn model, the feasibility of upregulating cutaneous NRF2 activity by systemic administration was first examined. It has been reported earlier that efficient cutaneous accumulation of dietary carotenoids requires prolonged nutritional supplementation over weeks and that pharmacokinetic parameters of cutaneous delivery of dietary carotinoids differ between humans and mice. Therefore, in order to circumvent the more complex pharmacokinetics associated with dietary supplementation, an intraperitoneal (i.p.) route for bixin systemic administration followed by examination of cutaneous NRF2 status was chosen. After i.p. injection of bixin (200 mg/kg) performed in Nrf2^+/+ and Nrf2^−/− mice, plasma was collected at 0, 1, 2, 4, 8, 16, 24, 48 and 72 h after injection followed by HPLC-photodiode array detection (FIG. 4A-C). […] Next, efficacy of various bixin treatment regimens (differing with regard to total dose and time after injection) for maximum activation of the NRF2 pathway in murine skin was determined (FIG. 4D).
Electrospray mass spectrometry of bixin [dissolved in tetrahydrofuran and diluted tenfold in acetonitrile/NH4OH (0.1 N); ESI-MS (negative ion mode) m/z 393.21 (M−1)^−] was performed using a Bruker Apex FT/ICR mass spectrometer. […]

SKH-1 mice skin = assay: Solar UV photodamage model; format: in vivo
Protocol: Next, the feasibility of bixin-induced cutaneous protection was studied in a solar UV photodamage model. Nrf2^+/+ and Nrf2^−/− mice were i.p. injected with either corn oil (carrier control) or bixin (200 mg/kg) 48 h before solar UV exposure (240 mJ/cm^2 UVB; 4.4 J/cm^2 UVA). 24 h after UV exposure back skin tissue was then collected followed by immunohistochemical (IHC) analysis. […] Moreover, UV exposure alone activated the NRF2 response in murine skin, effects not detectable in Nrf2^−/− mice (FIG. 5).
Irradiation with solar UV occurred as described before. A KW large area light source solar simulator, model 91293, from Oriel Corporation (Stratford, Conn.) was used, equipped with a 1000 W Xenon arc lamp power supply, model 68920, and a VIS-IR bandpass blocking filter combined with an atmospheric attenuation filter (output 290-400 nm plus residual 650-800 nm). At 345 mm from the source, the UV dose was 4.4 J/cm^2 UVA+240 mJ/cm^2 UVB radiation.
Nrf2^+/+ and Nrf2^−/− SKH-I mice were obtained by breeding Nrf2 heterozygous mice generated by back-crossing Nrf2^−/− C57BL/6 mice onto the SKH-1 hairless mouse genetic background for at least six generations (JAX® Mice, The Jackson Laboratory). All animals received water and food ad libitum and were handled according to the Guide for the Care and Use of Laboratory Animals; the protocols were approved by the University of Arizona Institutional Animal Care and Use Committee. Eight-week-old Nrf2^+/+ and Nrf2^−/− mice were randomly allocated into four groups (n=6): (i) control (corn oil); (ii) bixin (200 mg/kg, dissolved in corn oil); (iii) UV; (iv) bixin+UV. Bixin was administered through intraperitoneal (i.p.) injection 48 h before UV exposure.
24 h after UV exposure, the mice were euthanized and back skin was collected and divided into two parts: one part was frozen in liquid nitrogen for total RNA extraction and protein analysis; the other part was fixed in 10% buffered formalin and embedded in paraffin for histological and immunohistochemical analyses. Tissue sections (4 μm) were baked and deparaffinized. Hematoxylin and eosin (H&E) staining was performed for pathological examination. Antigen retrieval was carried out by boiling the slides with retrieval solution (citric acid monohydrate 2.1 g/L in H2O pH=6.0) three times for 5 min [43]. Tissue sections were then exposed to 3.5 M HCl for 15 min at room temperature and washed with PBS. Subsequently, tissue sections were treated with 0.3% […] to quench endogenous peroxidase activity. Tissue sections were incubated with 5% normal goat serum for 30 min followed by 2 h incubation with primary antibodies at 1:100 dilution at room temperature. Staining was performed using the EnVision+System-HRP (DAB) kit (Dako) according to the manufacturer's instructions.
An in situ cell death detection kit (Roche) was used for detection of apoptotic cell death in skin sections according to the manufacturer's instructions. Briefly, tissue sections were pretreated with proteinase K (20 μg/ml) in 10 mM Tris/HCl (pH 7.8) at 37° C. for 30 min. After washing three times with PBS, tissue sections were incubated with TUNEL reaction mixture for 1 h at 37° C. in the dark. Tissue sections were then stained with Hoechst, and analyzed using a fluorescence microscope (Zeiss Observer.Zi microscope; slidebook computer program; excitation wavelength: 450-500 nm; detection wavelength: 515-565 nm). Hoechst stain was visualized under UV light.

NRF2 = assay: Immunoblot analysis in human primary melanocytes; format: cell-based; details: 0-40 μM
Protocol: Human cultured primary melanocytes (skin pigment producing cells) were treated with Bixin (0-40 μM) for up to 16 h. After 4 and 16 h, cells were harvested for immunoblot analysis testing for Nrf2 upregulation (Nrf2) GAPDH served as loading control.
Human cultured primary melanocytes (skin pigment producing cells) were treated with Bixin (0-40 μM) for 16 h. After 16 h, cells were harvested for immunoblot analysis testing for upregulation of cytoprotective Nrf2 targets including NQO1 and TrxR1. GAPDH served as loading control.

[3] = 200 mg/kg i.p. 48 h before solar UV, effect confined to Nrf2+/+ mice

Protocol for HaCaT keratinocytes: Photodynamic induction of intracellular oxidative stress and its suppression by bixin pretreatment was analyzed by flow cytometry using 2′,7′-dichlorodihydrofluorescein diacetate (DCFH-DA) as a sensitive non-fluorescent precursor dye according to a published standard procedure [14]. HaCaT keratinocytes were pretreated with bixin (1 or 24 h) and then exposed to singlet oxygen generated by dye-sensitization as described earlier [14, 44]. In brief, toluidine blue 0 (TB) photosensitization was achieved using a ‘Sylvania 15 W Cool White’ light tube delivering visible light at an irradiance of 4.29 mW/cm^2. The irradiance in the visible region (400-700 nm) was determined using a spectroradiometer, Model 754 from Optronic Laboratories (Orlando, Fla.). Cells received visible radiation at a distance of 50 mm from the source through the polystyrene lids of cell culture dishes. For ^1O2 exposure, cells were washed with PBS and immediately exposed to the combined action of visible light (0.3 J/cm^2) and TB (3.3 μM) in PBS. Following 5 min incubation in the dark after irradiation, cells were washed with PBS. Cells were then incubated for 60 min in the dark (37° C., 5% CO2) with culture medium containing DCFH-DA (5 μg/mL final concentration). Cells were then washed with PBS, harvested by trypsinization, resuspended in 300 μl PBS, and analyzed by flow cytometry.

## COC(=O)/C=C/C(C)=C\C=C\C(C)=C\C=C\C=C(C)\C=C\C=C(C)\C=C\C(=O)O [bixin]
[1]
  expression of NRF2 target genes (AKR1C2, GCLC, NQO1, SLC7A11, FTH1, TXNRD1, NCF2, SRXN): Pronounced upregulation
[2]
  AUC, Nrf2+/+ versus Nrf2−/−: did not differ significantly
[2]; ip
  peak plasma concentration (Cmax): up to 11.3 μg/ml
SKH-1 mice skin; [3]
  UV-induced apoptosis (TUNEL-positive cells): suppressed
  UV-induced epidermal thickening: suppressed
SKH-1 mice skin; Nrf2+/+ and Nrf2−/− mice, 200 mg/kg i.p.
  cyclobutane pyrimidine dimer (CPD)-lesions: not antagonized
SKH-1 mice skin; Nrf2+/+ mice only, 200 mg/kg i.p.
  UV-induced epidermal expression of MMP9 (IHC): significantly antagonized
SKH-1 mice skin; Nrf2+/+ mice, 200 mg/kg i.p.
  UV-elicited keratinocyte hyperproliferation (Ki67 IHC): suppression
  UV-enhanced 8-oxo-dG staining (IHC): suppressed
  UV-induced p-p65 accumulation in the skin: decreased
SKH-1 mice skin; Nrf2−/− mice, 200 mg/kg i.p.
  UV-enhanced 8-oxo-dG staining (IHC): not Nrf2^−/− mice
  UV-induced p-p65 accumulation in the skin: minimal effects
SKH-1 mice skin; observed only in Nrf2+/+ mice, 200 mg/kg i.p.
  UV-induced NF-κB target gene expression (IL6, TNFα, MMP9) at the mRNA level: attenuation
NRF2; 4 and 16 h
  Nrf2 upregulation in melanocytes: efficient Nrf2 activator
NRF2; 16 h
  upregulation of cytoprotective Nrf2 targets NQO1 and TrxR1 in melanocytes: efficient activator
HaCaT keratinocytes
  DCF fluorescence after compound only (no dye sensitization): did not cause an increase
HaCaT keratinocytes; HaCaT, 20 μM, 1 h preincubation
  protection against 1O2-induced oxidative stress: without protective effects
HaCaT keratinocytes; HaCaT, 20 μM, 24 h preincubation
  suppression of 1O2-induced increase in DCF fluorescence: efficiently suppressed
